Reference: BindingDB's records for doi:10.1016/j.bmcl.2003.10.074 (University of Kentucky, 2004)

Assay: Binding affinity towards blood brain barrier choline transporter at 10 uM using rat brain

Structure (SMILES)	Ki [µM]
CCCCCCCCCC[n+]1cccc([C@@H]2CCCN2C)c1 [1-Decyl-3-((S)-1-methyl-pyrrolidin-2-yl)-pyridinium; iodide]	27
CCCCCCCC[n+]1cccc([C@@H]2CCCN2C)c1 [(S)-3-(1-methylpyrrolidin-2-yl)-1-octylpyridinium iodide]	49

The remaining lines, values ahead:

Ki [µM]	Structure (SMILES)
10	CCCCCCCC[N+](C)(C)CCO [(2-Hydroxy-ethyl)-dimethyl-octyl-ammonium]
250	CCCC[n+]1ccccc1 [1-Butyl-pyridinium]
250	CCCCCCCC[n+]1ccccc1 [1-Octyl-pyridinium; iodide]
